From publication PMC9496321, “6-Furopyridine Hexamethylene Amiloride Is a Non-Selective P2X7 Receptor Antagonist” (Biomolecules, 2022)

Columns and labels:
P2X7 [1] = target: T1, P2X7 (Homo sapiens, UniProt Q99572); assay: ATP-induced YO-PRO-1 uptake into human T cells (PBMCs); type: cell-based; set-up: Human peripheral blood mononuclear cells (PBMCs) were pre-incubated with DMSO (vehicle) or 30 μM 6-FPHMA; endogenous in cells; host or cells: cryopreserved human PBMCs (CD3+, CD4+, CD8+ T cells), four donors; details: 30 μM compound, 1 mM ATP
T1 sequence (Q99572 1-595): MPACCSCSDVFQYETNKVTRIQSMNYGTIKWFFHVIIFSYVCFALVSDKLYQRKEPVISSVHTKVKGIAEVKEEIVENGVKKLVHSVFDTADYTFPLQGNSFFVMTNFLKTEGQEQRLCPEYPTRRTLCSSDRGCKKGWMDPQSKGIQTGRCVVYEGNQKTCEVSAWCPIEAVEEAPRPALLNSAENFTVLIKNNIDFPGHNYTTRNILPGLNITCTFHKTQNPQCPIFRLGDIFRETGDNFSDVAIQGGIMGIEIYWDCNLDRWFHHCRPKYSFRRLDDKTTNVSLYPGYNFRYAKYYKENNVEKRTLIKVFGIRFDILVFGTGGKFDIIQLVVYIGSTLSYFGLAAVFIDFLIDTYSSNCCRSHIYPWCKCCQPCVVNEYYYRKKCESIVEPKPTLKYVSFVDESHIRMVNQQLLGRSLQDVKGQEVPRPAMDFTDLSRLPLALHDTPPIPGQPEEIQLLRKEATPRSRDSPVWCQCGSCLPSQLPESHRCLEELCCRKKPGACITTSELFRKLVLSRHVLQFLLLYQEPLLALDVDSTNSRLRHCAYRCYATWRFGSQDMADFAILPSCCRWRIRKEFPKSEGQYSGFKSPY
Description: ATP-mediated uptake assays were conducted as described with either ethidium bromide or YO-PRO-1 iodide. Briefly, RPMI8226, HEK-hP2X7, HEK-mP2X7, HEK-cP2X7 or cryopreserved human peripheral blood mononuclear cells (PBMCs) were washed thrice with LDM (300× g, 5 min), resuspended in LDM and 1 × 10^6 cells were added to individual tubes. Cells were pre-incubated in the absence of compound (37 °C, 5 min) or in the presence of compound or vehicle (DMSO) (37 °C, 15 min) as indicated. […] An equal volume of ice-cold Mg^2+ stop solution was added and cells centrifuged (300× g, 5 min). Cells were washed twice in LDM (300× g, 5 min), resuspended and data were collected with an LSR Fortessa X-20 flow cytometer. MFI of ethidium^+ or YO-PRO-1^2+ was determined using FlowJo.

human uPA = system: human uPA; set-up: method as in PMID 33804289; details: cited from earlier work
endogenous hP2X7 = target: T2, endogenous hP2X7 (Homo sapiens, UniProt Q99572); assay: ATP-induced ethidium+ uptake in RPMI8226 multiple myeloma cells (flow cytometry); type: cell-based
T2 construct: endogenous in cells; host or cells: RPMI8226 cells
T2 sequence (Q99572 1-595): T1 sequence (Q99572 1-595)

P2X7 [2] = target: T1, P2X7; assay: Plate-based flow cytometric YO-PRO-1 dye uptake compound screen in RPMI8226 cells; type: cell-based; set-up: endogenous in cells; host or cells: RPMI8226 cells; details: RPMI8226 cells, plate-based screen
Description: RPMI8226 cells were washed thrice with low-divalent medium (LDM) (145 mM NaCl, 2 mM KCl, 0.2 mM CaCl2, 13 mM D-glucose and 10 mM HEPES, pH 7.5) and 1 × 10^5 cells were added to each well of a 96-well flat-bottomed plate. Amiloride derivatives, at 10 μM (final concentration 5 μM) or vehicle (DMSO) were added, and plates pre-incubated (37 °C, 15 min). […] Wells were washed twice with LDM (300× g, 5 min) and cells were resuspended in LDM. Data was acquired with an Attune NxT Flow Cytometer an Autosampler (Thermo Fisher Scientific). Mean fluorescent intensity (MFI) of YO-PRO-1^+ uptake was determined using FlowJo.

reduction of ATP-induced YO-PRO-1 uptake into CD3+ T cells (P2X7 [1]) | reduction of ATP-induced YO-PRO-1 uptake into CD4+ T cells (P2X7 [1]) | reduction of ATP-induced YO-PRO-1 uptake into CD8+ T cells (P2X7 [1]) | blockade of hP2X7-mediated dye uptake (endogenous hP2X7; 30 μM compound, 300 μM ATP, RPMI8226 cells) | IC50 (endogenous hP2X7; read-out: IC50, hP2X7-mediated dye uptake) | Compound | inhibition of human uPA (human uPA) | EC50 (endogenous hP2X7; RPMI8226 cells, no antagonist) | EC50 (P2X7 [2])
62 ± 3% | 62 ± 3% | 62 ± 4% | 100% | 0.58 ± 0.05 µM | N=C(N)NC(=O)c1nc(-c2cc3cnccc3o2)c(N2CCCCCC2)nc1N [6-FPHMA, 6-furopyridine-substituted 5-(N,N-hexamethylene) amiloride] | inhibit |  | 
 |  |  |  |  | Nc1ncnc2c1ncn2[C@@H]1O[C@H](COP(=O)(O)OP(=O)(O)OP(=O)(O)O)[C@@H](O)[C@H]1O [ATP, adenosine 5′-triphosphate] |  | 311 ± 21 µM | ~250 µM
